What was measured:
Type in all cases: cell-based, human
hiPS cells [1] = assay: Clonal assay evaluated by alkaline phosphatase (ALP) assay; settings: single cell per well, Matrigel-coated 96-well plates, blebbistatin 5 μM, 7 days
Procedure: hES or hiPS cells in mTeSR supplemented with or without blebbistatin were plated on Matrigel-coated 96-well plates at a single cell per well. Seven days after plating, cells were subjected to alkaline phosphatase assay using Alkaline Phosphatase Detection Kit (Millipore) according to the manufacturer's instruction.

Oct3/4 and Nanog = Oct3/4 and Nanog expression by QPCR, Western analysis and immunocytochemistry; settings: hES cells in mTeSR or hESm, different concentrations, 48 h
Procedure: For immunocytochemistry, cells grown on culture vessels were fixed in 4% paraformaldehyde (USB Corporation). After washing with PBS/BSA, the samples were incubated with primary antibodies recognizing the target proteins at 4° C. overnight. The primary antibodies used in the study include Oct3 (BD Biosciences), myosin IIA (Covance), and myosin IIB (Covance). The samples were washed for three times, and incubated with appropriate secondary antibodies conjugated with Alexa Fluorophore (Invitrogen) at room temperature for 30 min. […]
QPCR. […] The extracted RNA sample was quantified by UV spectrophotometer, and qualified by the RNA Nano Lab chip (Agilent Technologies). […] Each cycle threshold (CT) value was determined by iQ5 optical system software (BioRad), and normalized by the β-actin expression level. […]
Total protein was extracted with RIPA buffer (20 mM Tris-HCl, pH 7.5, 150 mM NaCl, 1 mM Na2EDTA, 1 mM EGTA, 1% NP-40, 1% sodium deoxycholate, 2.5 mM sodium pyrophosphate, 1 mM β-glycerophosphate, 1 mM Na3VO4, and protease inhibitors). Protein concentrations were determined by BCA Protein Assay kit (Pierce). […]

hiPS cells and hES cells = assay: Cell survival / embryoid body formation in low-density suspension culture; settings: compared with Y27632
Text: While hiPS and hES cells can form cell aggregates and subsequently grow as embryoid bodies when plated at high densities on non-adhesive culture surfaces such as non-tissue culture-treated plates, they mostly undergo apoptosis when plated at low densities that prevent cells from forming aggregates. This is because human pluripotent stem cells are epithelical cells that are programmed to activate cell death signals upon detachment from culture surface (anoikis).

hiPS cells [2] = assay: Cell viability assay under adherence conditions (trypan blue live cell counting); settings: 10 μM, 24 h after plating 1×10^5 cells/well, n=3
Procedure: hES or hiPS cells were plated at 1×10^5 cells/well on 12-well plates coated with PDL or Matrigel in mTeSR in the presence or absence of blebbistatin or Y-27632 at various concentrations in triplicates. DMSO (solvent for blebbistatin) was also added in the control condition and found to have no effect on viability. For mES cells, cells were plated under the same condition except for the use of gelatin coating and mES medium. After 24 h, cells were harvested, trypsinized to single cells, and counted by hemocytometer. Cell counting was performed independently by two researchers to confirm the consistency. The same samples were used for TUNEL assay immediately after taking a small fraction of the sample for cell counting.

SMILES: Cc1ccc2c(c1)C(=O)C1(O)CCN(c3ccccc3)C1=N2 (centres unmarked) [blebbistatin, 1-Phenyl-1,2,3,4-tetrahydro-4-hydroxypyrrolo[2,3-b]-7-methylquinolin-4-one]
- Cloning efficiency (ratio of wells with an ALP-positive colony to wells seeded) (hiPS cells [1]): 29±1.8%
- Oct3/4 and Nanog expression (Oct3/4 and Nanog): elevated levels of both transcription factors in a dose dependent manner
- Cell survival in low-density suspension culture (hiPS cells and hES cells): markedly increased cell survival
- Number of viable cells (hiPS cells [2]; hiPS cells on Matrigel coating): 8.6±0.6×10^4 cells
- Number of viable cells (hiPS cells [2]; hiPS cells on PDL): 7.9±0.6×10^4 cells

Source: patent publication US8609417B2, “Methods and compositions for stem cell cultures” (The Regents of the University of California, priority 2009, dated 2013)
